Measurements as given in patent US20230416238A1, “N-[(1,3-BENZOXAZOL-2-YL)-HETEROCYCLE]AMIDE DERIVATIVES FOR THE TREATMENT AND PROPHYLAXIS OF HEPATITIS B VIRUS INFECTION” (Hoffmann-La Roche Inc., priority 2020, published 2023).
pIC50: −log10 of the molar value.

Key:
Type in all cases: cell-based
HBsAg = assay: PHH HBV natural infection assay, HBsAg (alphalisa); conditions: Hepatitis B virus, Hepatocyte, read-out: HBsAg IC50
How it was run: (§1)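 Primary human hepatocytes infected with HBV at 200 GE/cell plus 4% PEG8000 for 24 h, then sandwich-cultured 72 h in medium with 1% DMSO. Compound applied twice at 72-h intervals; supernatant HBsAg and HBeAg quantified by AlphaLISA.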

HBeAg = assay: PHH HBV natural infection assay, HBeAg (alphalisa); conditions: Hepatitis B virus, Hepatocyte, read-out: HBeAg IC50
How it was run: as §1

[1] = Cytotoxicity in PHH natural infection assay (Cell Counting Kit-8); conditions: HBV-infected primary human hepatocytes, CCK8
How it was run: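 HBV-infected primary human hepatocytes (200 GE/cell, 4% PEG8000, 24 h), then sandwich-cultured 72 h. Cells dosed at varying concentrations for two 72-hour cycles, with medium refreshed. Cytotoxicity read by CCK-8 at end of treatment.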

Row | Structure (SMILES) | pIC50 (HBsAg) | pIC50 (HBeAg) | CC50 at 144 h [1]
1 | O=C(NC1CCC2(CC1)CCN(c1nc3cc(Cl)ccc3o1)CC2)[C@@H]1CCS(=O)(=O)C1 [Example 91, (3S)—N-[3-(5-chloro-1,3-benzoxazol-2-yl)-3-azaspiro[5.5]undecan-9-yl]-1,1-dioxo-thiolane-3-carboxamide] | 5.95 | 6.17 | 89.2 µM
2 | CS(=O)(=O)c1ccc(C(=O)NC2CC3(C2)CN(c2nc4cc(Cl)ccc4o2)C3)o1 [Example 56, N-[2-(5-chloro-1,3-benzoxazol-2-yl)-2-azaspiro[3.3]heptan-6-yl]-5-methylsulfonyl-furan-2-carboxamide] | 5.91 | 6.00 | > 100 µM
3 | CC(C)COC(=O)NC1CC2(C1)CN(c1nc3cc(Cl)ccc3o1)C2 [Example 22, Isobutyl N-[2-(5-chloro-1,3-benzoxazol-2-yl)-2-azaspiro[3.3]heptan-6-yl]carbamate] | 5.23 | 5.32 | 82.7 µM
4 | CS(=O)(=O)c1ccc(C(=O)NC2CC3(C2)CN(c2nc4cc(Cl)cnc4o2)C3)o1 [Example 48, N-[2-(6-chlorooxazolo[5,4-b]pyridin-2-yl)-2-azaspiro[3.3]heptan-6-yl]-5-methylsulfonyl-furan-2-carboxamide] | 5.42 | 5.53 | > 100 µM
5 | CS(=O)(=O)Cc1ccc(C(=O)NC2CC3(C2)CN(c2nc4cc(Cl)ccc4o2)C3)o1 [Example 51, N-[2-(5-chloro-1,3-benzoxazol-2-yl)-2-azaspiro[3.3]heptan-6-yl]-5-(methylsulfonylmethyl)furan-2-carboxamide] | 5.65 | 5.71 | > 100 µM
6 | O=C(CC1CCOC1)NC1CCC2(CC1)CCN(c1nc3cc(Cl)ccc3o1)CC2 (stereo not drawn) [Example 84, N-[3-(5-chloro-1,3-benzoxazol-2-yl)-3-azaspiro[5.5]undecan-9-yl]-2-tetrahydrofuran-3-yl-acetamide] | 5.69 | 5.86 | 58.6 µM
7 | O=C(NC1CC2(C1)CN(c1nc3ccc(Cl)cc3o1)C2)c1ccnc(S(=O)(=O)C2CC2)c1 [Example 37, N-[2-(6-chloro-1,3-benzoxazol-2-yl)-2-azaspiro[3.3]heptan-6-yl]-2-cyclopropylsulfonyl-pyridine-4-carboxamide] | 5.11 | 5.20 | > 10 µM
8 | CC[S+]([O-])c1ccc(C(=O)NC2CCC3(CC2)CCN(c2nc4cc(Cl)ccc4o2)CC3)o1 (stereo not drawn) [Example 103, N-[3-(5-chloro-1,3-benzoxazol-2-yl)-3-azaspiro[5.5]undecan-9-yl]-5-ethylsulfinyl-furan-2-carboxamide] | 5.87 | 5.73 | 72.7 µM
9 | COc1cc(C(=O)NC2CCC3(CC2)CCN(c2nc4cc(Cl)ccc4o2)CC3)ccn1 [Example 106, N-[3-(5-chloro-1,3-benzoxazol-2-yl)-3-azaspiro[5.5]undecan-9-yl]-2-methoxy-pyridine-4-carboxamide] | 6.23 | 6.32 | > 100 µM
10 | O=C(CCC(F)(F)F)NC1CC2(C1)CN(c1nc3cc(Cl)ccc3o1)C2 [Example 25, N-[2-(5-chloro-1,3-benzoxazol-2-yl)-2-azaspiro[3.3]heptan-6-yl]-4,4,4-trifluoro-butanamide] | 5.01 | 4.99 | > 100 µM
11 | CC1(C(=O)NC2CCC3(CC2)CCN(c2nc4cc(Cl)ccc4o2)CC3)CCS(=O)(=O)C1 (stereo not drawn) [Example 93, N-[3-(5-chloro-1,3-benzoxazol-2-yl)-3-azaspiro[5.5]undecan-9-yl]-3-methyl-1,1-dioxo-thiolane-3-carboxamide] | 5.74 | 5.92 | > 100 µM
12 | O=C(NC1CCN(c2nc3cc(Cl)ccc3o2)CC1)c1ccc(C(F)(F)F)o1 [Example 12, N-[1-(5-chloro-1,3-benzoxazol-2-yl)-4-piperidyl]-5-(trifluoromethyl)furan-2-carboxamide] | 5.34 | 5.26 | > 100 µM
13 | O=C(NC1CCC2(CC1)CCN(c1nc3cc(Cl)ccc3o1)CC2)[C@H]1CCS(=O)(=O)C1 [Example 92, (3R)—N-[3-(5-chloro-1,3-benzoxazol-2-yl)-3-azaspiro[5.5]undecan-9-yl]-1,1-dioxo-thiolane-3-carboxamide] | 6.07 | 6.12 | 83.9 µM
14 | CS(=O)(=O)c1cccc(C(=O)NCC2CCN(c3nc4cc(Cl)ccc4o3)CC2)c1 [Example 4, N-[[1-(5-chloro-1,3-benzoxazol-2-yl)-4-piperidyl]methyl]-3-methylsulfonyl-benzamide] | 5.20 | 5.24 | > 10 µM
15 | CS(=O)(=O)CCC(=O)NC1CCC2(CC1)CCN(c1nc3cc(Cl)ccc3o1)CC2 [Example 83, N-[3-(5-chloro-1,3-benzoxazol-2-yl)-3-azaspiro[5.5]undecan-9-yl]-3-methylsulfonyl-propanamide] | 5.60 | 5.75 | 98.6 µM
16 | CC1(NC(=O)c2ccc(S(C)(=O)=O)o2)CC2(CN(c3nc4cc(Cl)ccc4o3)C2)C1 [Example 67, N-[2-(5-chloro-1,3-benzoxazol-2-yl)-6-methyl-2-azaspiro[3.3]heptan-6-yl]-5-methylsulfonyl-furan-2-carboxamide] | 5.75 | 5.67 | > 100 µM
17 | O=C(NC1CCC2(CCN(c3nc4cc(Cl)ccc4o3)C2)C1)C1CCS(=O)(=O)C1 (stereo not drawn) [Example 74, N-[2-(5-chloro-1,3-benzoxazol-2-yl)-2-azaspiro[4.4]nonan-8-yl]-1,1-dioxo-thiolane-3-carboxamide] | 5.36 | 5.43 | > 100 µM
18 | Cc1cc(C(=O)NC2CCC3(CC2)CCN(c2nc4cc(Cl)ccc4o2)CC3)ccn1 [Example 107, N-[3-(5-chloro-1,3-benzoxazol-2-yl)-3-azaspiro[5.5]undecan-9-yl]-2-methyl-pyridine-4-carboxamide] | 6.30 | 6.37 | > 100 µM
19 | CS(=O)(=O)c1cc(C(=O)NCC2CCN(c3nc4cc(Cl)ccc4o3)CC2)ccn1 [Example 5, N-[[1-(5-chloro-1,3-benzoxazol-2-yl)-4-piperidyl]methyl]-2-methylsulfonyl-pyridine-4-carboxamide] | 5.33 | 5.31 | > 10 µM
20 | O=C(NC1CCC2(CC1)CCN(c1nc3cc(Cl)ccc3o1)CC2)C1CCC(F)(F)C1 (stereo not drawn) [Example 101, N-[3-(5-chloro-1,3-benzoxazol-2-yl)-3-azaspiro[5.5]undecan-9-yl]-3,3-difluoro-cyclopentanecarboxamide] | 5.38 | 5.37 | > 100 µM
21 | O=C(NC1CCC2(CC1)CCN(c1nc3cc(Cl)ccc3o1)CC2)C1CCOC1 (stereo not drawn) [Example 86, N-[3-(5-chloro-1,3-benzoxazol-2-yl)-3-azaspiro[5.5]undecan-9-yl]tetrahydrofuran-3-carboxamide] | 5.54 | 5.55 | 82.7 µM
22 | O=C(NC1CC2(C1)CN(c1nc3cc(Cl)ccc3o1)C2)c1ccnc(S(=O)(=O)C2CC2)c1 [Example 66, N-[2-(5-chloro-1,3-benzoxazol-2-yl)-2-azaspiro[3.3]heptan-6-yl]-2-cyclopropylsulfonyl-pyridine-4-carboxamide] | 6.11 | 6.22 | 84.2 µM
23 | CCS(=N)(=O)c1ccc(C(=O)NC2CCC3(CC2)CCN(c2nc4cc(Cl)ccc4o2)CC3)o1 (stereo not drawn) [Example 114, N-[3-(5-chloro-1,3-benzoxazol-2-yl)-3-azaspiro[5.5]undecan-9-yl]-5-(ethylsulfonimidoyl)furan-2-carboxamide] | 5.45 | 5.51 | 93.3 µM
24 | N=S(=O)(c1ccc(C(=O)NC2CCC3(CC2)CCN(c2nc4cc(Cl)ccc4o2)CC3)o1)C1CC1 (stereo not drawn) [Example 120, N-[3-(5-chloro-1,3-benzoxazol-2-yl)-3-azaspiro[5.5]undecan-9-yl]-5-(cyclopropylsulfonimidoyl)furan-2-carboxamide] | 5.81 | 5.85 | 66.6 µM
25 | CCS(=O)(=O)c1ccc(C(=O)NC2CCC3(CC2)CCN(c2nc4cc(Cl)ccc4o2)CC3)o1 [Example 117, N-[3-(5-chloro-1,3-benzoxazol-2-yl)-3-azaspiro[5.5]undecan-9-yl]-5-ethylsulfonyl-furan-2-carboxamide] | 5.62 | 5.54 | > 100 µM
26 | O=C(NC1CCC2(CC1)CCN(c1nc3cc(Cl)ccc3o1)CC2)c1ccnc(S(=O)(=O)C2CC2)c1 [Example 118, N-[3-(5-chloro-1,3-benzoxazol-2-yl)-3-azaspiro[5.5]undecan-9-yl]-2-cyclopropylsulfonyl-pyridine-4-carboxamide] | 5.63 | 5.63 | > 10 µM
27 | O=C(NC1C2CN(c3nc4cc(Cl)ccc4o3)CC21)c1ccc(C(F)(F)F)o1 (stereo not drawn) [Example 125, N-[3-(5-chloro-1,3-benzoxazol-2-yl)-3-azabicyclo[3.1.0]hexan-6-yl]-5-(trifluoromethyl)furan-2-carboxamide] | 5.32 | 5.27 | > 100 µM
